The subject of the assay is despinalisierten Meerschweinchen. Kind of assay: Positive inotropic effect in despinalised guinea pigs (LV-dp/dtmax, i.v. injection). It is filed as in vivo. Conditions: Cavia porcellus, iv; 1 mg/kg i.v.; mean values, each substance tested in 3 despinalised guinea pigs; read-out: Zunahme in LV-dp/dtmax. From the text:
Bestimmung der positiv inotropen Wirkung an despinalisierten Meerschweinchen
Die Untersuchungen wurden an despinalisierten Meerschweinchen durchgeführt. Die Tiere wurden mit 50 % 02 + 50 % N2 beatmet. Der arterielle Blutdruck wurde in der rechten Arteria Carotis mit einem Bell and Howell Druckwandler (4-327-1) gemessen. Für die Erfassung der positiv inotropen Wirkung wurde mit einem Kathetertipmanometer (Millar PR-249) der Druck in dem linken Ventrikel (LV) gemessen. Mittels eines Differenzierers wurde LV-dp/dtmax gewonnen. Die zu untersuchenden Substanzen wurden in eine Vena jugularis injiziert. Als Lösungsmittel diente 0,9 % NaCl+Polydiol 200 (1:1).
Jede Substanz wurde an 3 Meerschweinchen überprüft. Die Dosen waren 0,1 - 3 mg/kg i.v.. Die nachfolgende Tabelle enthält die Mittelwerte bei 1 mg/kg i.v..
With `COc1ccc(-c2cn3cc[nH]c(=O)c3n2)cc1` [Substanz B, 2-(4-Methoxy-phenyl)-7H-imidazo[1,2-a]pyrazin-8-on], the change in vivo at 1 mg/kg is 45%. In the case of `COc1cc(OS(C)(=O)=O)ccc1-c1cn2cc[nH]c(=O)c2n1` [Substanz I, 2-(2-Methoxy-4-methylsulfonyloxy-phenyl)-7H-imidazo-[1,2-a]pyrazin-8-on], the change in vivo at 1 mg/kg was 98%. Turning to `COc1cc(S(=O)(=O)N(C)C)ccc1-c1cn2ccc(=O)[nH]c2n1` [Substanz F, 2-(2-Methoxy-4-dimethylaminosulfonyl-phenyl)-8H-imidazo-[1,2-a]pyrimidin-7-on], the change in vivo at 1 mg/kg worked out at 47%.

On to `CN(C)S(=O)(=O)c1ccc(-c2cn3ccc(=O)[nH]c3n2)cc1` [Substanz A], for which the change in vivo at 1 mg/kg amounted to 32%. The same measure for `COc1ccc(-c2cn3c(=O)[nH]c(=O)[nH]c3n2)cc1` [Substanz C, 7-(4-Methoxy-phenyl)-1H,3H-imidazo[1,2-a][1.3.5]triazin-2,4-dion]: 86%; for `COc1cc(OS(C)(=O)=O)ccc1-c1cn2ccc(=O)[nH]c2n1` [Substanz D, 2-(2-Methoxy-4-methylsulfonyloxy-phenyl)-8H-imidazo-[l,2-a]pyrimidin-7-on]: 63%; for `CNS(=O)(=O)c1ccc(-c2cn3ccc(=O)[nH]c3n2)c(OC)c1` [Substanz G, 2-(2-Methoxy-4-methylaminosulfonyl-phenyl)-8H-imidazo-[1,2-a]pyrimidin-7-on]: 75%. In the case of `COc1cc(C#N)ccc1-c1cn2ccc(=O)[nH]c2n1` [Substanz E, 2-(2-Methoxy-4-cyano-phenyl)-8H-imidazo[1,2-a]pyrimidin-7-on], the change in vivo at 1 mg/kg stood at 44%.

`COc1cc(C(=O)N(C)C)ccc1-c1cn2ccc(=O)[nH]c2n1` [Substanz H, 2-(2-Methoxy-4-dimethylaminocarbonyl-phenyl)-8H-imidazo-[l,2-a]pyrimidin-7-on]: the change in vivo at 1 mg/kg is 33%.

Values taken from patent EP0185346A2, “Imidazo derivatives, their preparation and medicaments containing these compounds” (Dr. Karl Thomae GmbH, priority 1984, dated 1986).
